In article PMC6708471 (Cell calcium, 2019):

What was measured:
[1] = target: T1, calmodulin (CaM) (Homo sapiens, UniProt P0DP25); assay: […]-1H HSQC NMR titration; assay type: binding
[2] = target: T1, calmodulin (CaM); assay: X-ray crystal structure; assay type: biochemical

EC50 [2] [µM]	SMILES	15N-1H HSQC NMR titration (intermediate exchange, modest affinity) [1]
–	COc1ccc(S(=O)(=O)Nc2ccccc2CN(C)C/C=C/c2ccc(Cl)cc2)cc1 [KN92]	We found that KN92 also affects the CaM NMR spectrum as many of the cross peaks disappear.
5.1 ± 1.4	COc1ccc(S(=O)(=O)N(CCO)c2ccccc2CN(C)C/C=C/c2ccc(Cl)cc2)cc1 [KN93]	–
